In patent US20260199493A1 (priority 2021, published 2026):

Legend:
[1] = system: human dystrophin (DMD) exon 44; experiment: Exon 44 skipping in DMD patient-derived muscle cells; type: cell-based; details: dose-dependent, maximum observed
Procedure: After 24 hours, the compound-containing growth medium was replaced with DMEM/2% horse serum and incubated for 5 days to promote myoblast fusion and differentiation into myotubes. Cells were washed and harvested for RNA extraction to assess exon 44 skipping, or in RIPA buffer containing protease inhibitors for protein extraction and Simple Western analysis of dystrophin protein restoration. Dystrophin levels were normalized to HSP90 and expressed relative to untreated healthy samples. Data are expressed as mean±SD, n=3-4. Untreated DMDΔ45 patient derived cells express ~10% spontaneous DMD exon 44 skipping and ~4% dystrophin protein at baseline.

[2] = system: exon 44 of human dystrophin mRNA; experiment: Exon 44 skipping by RT-PCR in hDMD mice; type: in vivo
Procedure: The hemizygous mice were further genotyped at Transnetyx. All groups were dosed 5 mL/kg per animal by intravenous (iv) injection and sacrificed after 5 days post injection. All animals were euthanized by CO2 asphyxiation followed by terminal blood collection via cardiac puncture. Maximum obtainable volume of whole blood was collected into lithium heparin tubes and processed to plasma. A portion of plasma was analyzed for clinical chemistries by the Testing Facility (IDEXX) and the rest stored frozen at nominally −70° C. […] Animals were age matched and assigned into eight (8) treatment groups according to Table 15. […] All animals survived until their scheduled euthanasia time. Tissues were collected per protocol. The amount of AC and a cCPP-AC in various tissue samples was quantified by LC-MS. Exon skipping in different tissues were analyzed by RT-PCR and the quantification of exon 44 correction.
(§1) Exon Skipping Analysis by RT-PCR: hDMD mice and NHP express full-length human dystrophin mRNA. The delivery of AC can alter the splicing and result in a shortened dystrophin mRNA after exon 44 skipping. The tissues were homogenized using 1 mL of RLT lysis buffer (Qiagen, Cat #79216). The detection of splicing correction process was measured by RT-PCR where extracted RNAs from tissues were first reverse-transcribed into cDNA and further analyzed by one step RT-PCR using the following primer set: forward primer 5′-[…]-3′ (SEQ ID NO: 262) and reverse primer 5′-[…]-3′ (SEQ ID NO: 263). […] Quantification of the relative intensity of the bands corresponding to skipped and unskipped transcripts were performed to assess AC-induced exon-44-skipping efficacy. The degree (percentage) of splicing correction detected by RT-PCR was calculated using the following equation: % correction=(intensity of 493 bp fragment band)/(intensity of 493 bp fragment band+intensity of 641 bp fragment band).

[3] = system: exon 44 of dystrophin mRNA; experiment: Exon 44 skipping by RT-PCR in NHP; type: in vivo, cynomolgus monkeys
Procedure: Each testing article was formulated in saline at 4 mg/mL. Bloods and urine were taken at times indicated in Table 18 for further PK analysis. Biopsy at 2 days post injection was performed on biceps. Animals were sacrificed at day 7 post injection and skeletal muscles (quadriceps, diaphragm, biceps, deltoid, tibialis anterior (TiA), smooth muscles (esophagus, aorta, colon) and cardiac muscles (ventricle, atrium) were taken, pulverized, and stored at −80° C. for evaluation of exon skipping and biodistribution in tissues.
as §1
Approximately 20 hours post dose the animal was (bright, alert, and responsive such that the animal was phenotypically “normal”) (BAR) and had zero biscuits left in the cage and was observed eating produce.

**Q.** For “Ac-PKKKRKV-AEEA-Lys-(cyclo[FGFGRGRQ])-PEG12-OH [EEV-PMO-DMD44-1]”, which “exon 44 skipping” value [1] is on record?
**A.** up to 100%

**Q.** And the exon skipping ([2]; hDMD mice, 10 mpk IV, 5 days, Diaphragm)?
**A.** 6%

**Q.** What about the exon skipping ([2]; hDMD mice, 10 mpk IV, 5 days, TiA) of the same substance?
**A.** 12%

**Q.** What about the exon skipping ([2]; hDMD mice, 10 mpk IV, 5 days, Triceps) of the same substance?
**A.** 6%

**Q.** And the exon skipping ([2]; hDMD mice, 10 mpk IV, 5 days, heart)?
**A.** 0%

**Q.** And the exon skipping ([2]; hDMD mice, 20 mpk IV, 5 days, Diaphragm)?
**A.** 33%

**Q.** And the exon skipping ([2]; hDMD mice, 20 mpk IV, 5 days, TiA)?
**A.** 36%

**Q.** And the exon skipping ([2]; hDMD mice, 20 mpk IV, 5 days, Triceps)?
**A.** 22

**Q.** What about the exon skipping ([2]; hDMD mice, 20 mpk IV, 5 days, heart) of the same substance?
**A.** 0%

**Q.** And the exon skipping ([2]; hDMD mice, 40 mpk IV, 5 days, Diaphragm)?
**A.** 82%

**Q.** What about the exon skipping ([2]; hDMD mice, 40 mpk IV, 5 days, TiA) of the same substance?
**A.** 99%

**Q.** And the exon skipping ([2]; hDMD mice, 40 mpk IV, 5 days, Triceps)?
**A.** 94%

**Q.** And the exon skipping ([2]; hDMD mice, 40 mpk IV, 5 days, heart)?
**A.** 20%

**Q.** What about the exon skipping ([2]; hDMD mice, 80 mpk IV, 5 days, Diaphragm) of the same substance?
**A.** 98%

**Q.** What about the exon skipping ([2]; hDMD mice, 80 mpk IV, 5 days, TiA) of the same substance?
**A.** 99%

**Q.** And the exon skipping ([2]; hDMD mice, 80 mpk IV, 5 days, Triceps)?
**A.** 97%

**Q.** What about the exon skipping ([2]; hDMD mice, 80 mpk IV, 5 days, heart) of the same substance?
**A.** 79%

**Q.** And the “minimum efficacious dose in the heart” value ([2]; hDMD mice, IV, 5 days)?
**A.** 40 mpk

**Q.** And the exon skipping ([2]; mouse, in vivo)?
**A.** up to 100%

**Q.** And the “exon 44 skipping across different muscle groups” value ([3]; 30 mg/kg, 1 hour IV infusion, 7 days)?
**A.** robust exon 44 skipping

**Q.** What about the “exon skipping in all skeletal muscles” value ([3]; 40 mpk IV, 7-d post injection) of the same substance?
**A.** more than 78%

**Q.** And the “exon skipping, atrium” value ([3]; 40 mpk IV, 7-d post injection)?
**A.** 23.4%

**Q.** What about the “exon skipping, diaphragm” value ([3]; 40 mpk IV, 7-d post injection) of the same substance?
**A.** 98.4%

**Q.** And the “exon skipping, esophagus” value ([3]; 40 mpk IV, 7-d post injection)?
**A.** 57.1%

**Q.** And the “exon skipping, ventricle” value ([3]; 40 mpk IV, 7-d post injection)?
**A.** 31.9%
